Measurements reported in PubChem BioAssay (NCI).
“And” between values parts separate entries of the source, which are not always exact repeats. Equal values may be shown once.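 Briefly, cells in 96-well plates were exposed to five compound concentrations for 48 h, and endpoints were estimated by linear interpolation. GI50 marks 50% less growth. At the TGI there is no net growth.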

Key:
Assay in all cases: NCI-60 cell line screen, 48 h
[1] = tested on: 786-0 renal
[2] = tested on: A498 renal
[3] = tested on: A549 NSCLC
[4] = tested on: ACHN renal
[5] = tested on: CAKI-1 renal
[6] = tested on: COLO 205 colon
[7] = tested on: DLD-1 colon
[8] = tested on: DMS 114 small cell lung
[9] = tested on: DMS 273 small cell lung
[10] = tested on: EKVX NSCLC
[11] = tested on: HCC-2998 colon
[12] = tested on: HCT-116 colon
[13] = tested on: HCT-15 colon
[14] = tested on: HL-60(TB) leukemia
[15] = tested on: HOP-18 NSCLC
[16] = tested on: HOP-62 NSCLC
[17] = tested on: HT29 colon
[18] = tested on: IGROV1 ovarian
[19] = tested on: K-562 leukemia
[20] = tested on: KM12 colon
[21] = tested on: KM20L2 colon
[22] = tested on: LOX IMVI melanoma
[23] = tested on: LXFL 529 NSCLC
[24] = tested on: M14 melanoma
[25] = tested on: M19-MEL melanoma
[26] = tested on: MOLT-4 leukemia
[27] = tested on: NCI-H226 lung
[28] = tested on: NCI-H23 lung
[29] = tested on: NCI-H460 lung
[30] = tested on: NCI-H522 lung
[31] = tested on: OVCAR-3 ovarian
[32] = tested on: OVCAR-4 ovarian
[33] = tested on: OVCAR-5 ovarian
[34] = tested on: OVCAR-8 ovarian
[35] = tested on: RPMI-8226 leukemia
[36] = tested on: RXF-631 renal
[37] = tested on: SF-268 CNS
[38] = tested on: SF-295 CNS
[39] = tested on: SF-539 CNS
[40] = tested on: SK-MEL-2 melanoma
[41] = tested on: SK-MEL-28 melanoma
[42] = tested on: SK-MEL-5 melanoma
[43] = tested on: SK-OV-3 ovarian
[44] = tested on: SN12C renal
[45] = tested on: SNB-19 CNS
[46] = tested on: SNB-75 CNS
[47] = tested on: SNB-78 CNS
[48] = tested on: SR leukemia
[49] = tested on: SW-620 colon
[50] = tested on: TK-10 renal
[51] = tested on: U251 CNS
[52] = tested on: UACC-257 melanoma
[53] = tested on: UACC-62 melanoma
[54] = tested on: UO-31 renal
[55] = tested on: XF 498 CNS
[56] = tested on: CCRF-CEM leukemia
[57] = tested on: HOP-92 NSCLC
[58] = tested on: MALME-3M melanoma
[59] = tested on: RXF 393 renal
[60] = tested on: DU-145 prostate
[61] = tested on: MCF7 breast
[62] = tested on: NCI/ADR-RES ovarian
[63] = tested on: PC-3 prostate

## O=C(CC(=O)Nc1cccc(Cl)c1)NNCC(=O)Nc1nnc(-c2ccccc2)s1
[1]
  TGI: 84.3 µM
[2]
  TGI: 86.8 µM
[3]
  TGI: > 100 µM
[4]
  TGI: > 100 µM
[5]
  TGI: > 100 µM
[6]
  TGI: > 100 µM
[7]
  TGI: > 100 µM
[8]
  TGI: > 100 µM
[9]
  TGI: > 100 µM
[10]
  TGI: > 100 µM
[11]
  TGI: > 100 µM
[12]
  TGI: > 100 µM
[13]
  TGI: > 100 µM
[14]
  TGI: > 100 µM
[15]
  TGI: 58.6 µM
[16]
  TGI: > 100 µM
[17]
  TGI: > 100 µM
[18]
  TGI: > 100 µM
[19]
  TGI: > 100 µM
[20]
  TGI: > 100 µM
[21]
  TGI: > 100 µM
[22]
  TGI: > 100 µM
[23]
  TGI: > 100 µM
[24]
  TGI: > 100 µM
[25]
  TGI: > 100 µM
[26]
  TGI: > 100 µM
[27]
  TGI: 75.7 µM
[28]
  TGI: > 100 µM
[29]
  TGI: > 100 µM
[30]
  TGI: > 100 µM
[31]
  TGI: > 100 µM
[32]
  TGI: 5.99 µM
[33]
  TGI: > 100 µM
[34]
  TGI: > 100 µM
[35]
  TGI: 86.6 µM
[36]
  TGI: > 100 µM
[37]
  TGI: > 100 µM
[38]
  TGI: > 100 µM
[39]
  TGI: > 100 µM
[40]
  TGI: > 100 µM
[41]
  TGI: > 100 µM
[42]
  TGI: > 100 µM
[43]
  TGI: 77.3 µM
[44]
  TGI: > 100 µM
[45]
  TGI: > 100 µM
[46]
  TGI: 33.8 µM
[47]
  TGI: > 100 µM
[48]
  TGI: > 100 µM
[49]
  TGI: > 100 µM
[50]
  TGI: > 100 µM
[51]
  TGI: > 100 µM
[52]
  TGI: > 100 µM
[53]
  TGI: > 100 µM
[54]
  TGI: > 100 µM
[55]
  TGI: 76.3 µM

## Cc1ccccc1C1=[N+]([O-])c2ccccc2C1=O
[1]
  TGI: 31.3 µM
[2]
  TGI: > 100 µM
[4]
  TGI: 30.6 µM
[56]
  TGI: 54.5 µM
[6]
  TGI: 29.1 µM
[7]
  TGI: 31.9 µM
[8]
  TGI: 27.4 µM
[10]
  TGI: 35.4 µM
[12]
  TGI: 32.4 µM
[13]
  TGI: 34.8 µM
[14]
  TGI: 28.9 µM
[15]
  TGI: 54.4 µM
[16]
  TGI: 57.2 µM
[57]
  TGI: 62.5 µM
[17]
  TGI: 27.7 µM
[18]
  TGI: 34.9 µM
[19]
  TGI: 45.7 µM
[20]
  TGI: 25.9 µM
[21]
  TGI: 32.9 µM
[22]
  TGI: 35 µM
[23]
  TGI: 28.3 µM
[24]
  TGI: 32.4 µM
[25]
  TGI: 28.5 µM
[58]
  TGI: 33.2 µM
[26]
  TGI: 49.2 µM
[27]
  TGI: 30.7 µM
[28]
  TGI: 35.4 µM
[29]
  TGI: 37.3 µM
[30]
  TGI: 29 µM
[31]
  TGI: 25.2 µM
[33]
  TGI: 43.1 µM
[34]
  TGI: 30.3 µM
[35]
  TGI: > 100 µM
[59]
  TGI: 37.3 µM
[36]
  TGI: 42.8 µM
[37]
  TGI: 36.8 µM
[38]
  TGI: 44.9 µM
[39]
  TGI: 33.7 µM
[40]
  TGI: 21.2 µM
[41]
  TGI: 35.8 µM
[42]
  TGI: 30.9 µM
[43]
  TGI: > 100 µM
[44]
  TGI: 32.1 µM
[45]
  TGI: > 100 µM
[46]
  TGI: 47 µM
[48]
  TGI: > 100 µM
[49]
  TGI: 45.1 µM
[50]
  TGI: 32.2 µM
[51]
  TGI: 31 µM
[52]
  TGI: 27.9 µM
[53]
  TGI: 34.6 µM
[54]
  TGI: 36.6 µM
[55]
  TGI: 31.3 µM

## CC(=O)O[C@@]12CO[C@@H]1C[C@H](O)[C@@]1(C)C(=O)[C@H](O)C3=C(C)[C@@H](OC(=O)[C@H](O)[C@@H](NC(=O)OC(C)(C)C)c4ccccc4)C[C@@](O)([C@@H](OC(=O)c4ccccc4)[C@H]21)C3(C)C
[1]
  GI50: 0.0612 µM and 0.00824 µM
  TGI: > 100 µM
[2]
  GI50: 0.0518 µM
  TGI: 56.1 µM
[3]
  GI50: 0.00454 µM
  TGI: > 82.2 µM
[4]
  GI50: 0.156 µM
  TGI: 67.1 µM
[5]
  GI50: 0.146 µM
  TGI: 81.8 µM
[56]
  GI50: 0.0286 µM and 0.0159 µM
  TGI: > 73.6 µM
[6]
  GI50: 0.0023 µM and 0.000963 µM
  TGI: 0.059 µM and 0.00717 µM
[7]
  GI50: 0.0352 µM and 0.0338 µM
  TGI: > 75.4 µM
[8]
  GI50: 0.00368 µM and 0.00371 µM
  TGI: 0.0525 µM and 0.0223 µM
[9]
  GI50: 0.0112 µM and 0.0271 µM
  TGI: 17.4 µM
[60]
  TGI: 78.2 µM
[10]
  GI50: 0.0464 µM
[11]
  GI50: 0.0182 µM
[12]
  GI50: 0.00203 µM
  TGI: > 100 µM
[13]
  GI50: 0.0656 µM
  TGI: 17.1 µM
[14]
  GI50: 0.00316 µM and 0.00342 µM
[15]
  TGI: 74.5 µM
[16]
  GI50: 0.0844 µM and 0.0428 µM
  TGI: 3.78 µM
[57]
  TGI: 59.4 µM
[17]
  GI50: 0.00746 µM and 0.00257 µM
[18]
  GI50: 0.0593 µM and 0.0198 µM
  TGI: > 79 µM
[19]
  GI50: 0.0147 µM and 0.0122 µM
  TGI: 71.9 µM
[20]
  GI50: 0.00708 µM and 0.0021 µM
  TGI: > 62.2 µM
[21]
  GI50: 0.00818 µM
  TGI: 0.022 µM
[22]
  GI50: 0.00308 µM and 0.00368 µM
  TGI: 42.1 µM
[23]
  GI50: 0.0356 µM and 0.0257 µM
  TGI: > 100 µM
[24]
  GI50: 0.0154 µM and 0.0205 µM
  TGI: 0.281 µM
[25]
  GI50: 0.0114 µM
  TGI: 21.2 µM
[61]
  TGI: 78.4 µM
[26]
  GI50: 0.0337 µM and 0.00877 µM
  TGI: 50.1 µM
[27]
  GI50: 0.00366 µM
  TGI: 43.4 µM
[28]
  GI50: 0.0192 µM
  TGI: > 67.2 µM
[29]
  GI50: 0.000351 µM
  TGI: 41 µM
[30]
  GI50: 0.00086 µM
[62]
  GI50: 0.68 µM
  TGI: 9.76 µM
[31]
  GI50: 0.0296 µM and 0.00642 µM
  TGI: 0.0244 µM
[32]
  TGI: 76.1 µM
[34]
  GI50: 0.0139 µM and 0.0138 µM
  TGI: > 79.3 µM
[63]
  TGI: > 100 µM
[35]
  GI50: 0.0057 µM and 0.00374 µM
  TGI: 15.6 µM
[59]
  GI50: 0.0252 µM and 0.0165 µM
[36]
  GI50: 0.297 µM
  TGI: > 56.7 µM
[37]
  GI50: 0.0677 µM and 0.0392 µM
  TGI: 77.6 µM
[38]
  GI50: 0.0123 µM and 0.0146 µM
  TGI: 0.133 µM
[39]
  GI50: 0.00666 µM and 0.0056 µM
  TGI: 0.0612 µM and 0.0251 µM
[40]
  GI50: 0.0269 µM
[41]
  GI50: 0.0327 µM and 0.0359 µM
  TGI: 36.5 µM
[42]
  GI50: 0.0133 µM and 0.00609 µM
  TGI: 17.1 µM
[43]
  GI50: 0.0521 µM and < 0.0174 µM
  TGI: 0.0491 µM
[44]
  GI50: 0.0224 µM and 0.00869 µM
  TGI: > 68.3 µM
[45]
  GI50: 0.00175 µM
[46]
  GI50: 0.0187 µM and 0.0127 µM
  TGI: 0.0637 µM
[48]
  GI50: 0.0154 µM and 0.00407 µM
  TGI: 23.5 µM
[49]
  GI50: 0.00764 µM and 0.00646 µM
  TGI: > 68.4 µM
[50]
  GI50: 0.0327 µM and 0.00788 µM
[51]
  GI50: 0.00244 µM and 0.00364 µM
  TGI: 28.3 µM
[52]
  GI50: 0.31 µM
  TGI: 57.9 µM
[53]
  GI50: 0.0141 µM and 0.112 µM
[54]
  GI50: 0.247 µM
  TGI: 18 µM
[55]
  GI50: 0.0397 µM and 0.0317 µM
